Entries after “also recorded” stand apart in the source; their conditions may differ.
Experiments:
[1] = tested on: metastatic (BB3RC31) PDX cells; assay: Secondary tumor formation of cells from PDX tumors treated in vivo; design: species or system mice; settings: 90 days post-implantation; for tumor-initiating capacity in secondary mouse hosts: cells from PDX tumors treated in vivo
Experimental: (§1) Tamoxifen citrate (Sigma, T9262, 10 mg/kg/day) and RO4929097 (Cellagen Technology, 3 mg/kg/day) were administered by oral gavage (0.1 ml/dose) on a five day from seven basis (weekends excluded) for fourteen days. Tamoxifen citrate and RO4929097 were prepared in 1% carboxymethylcellulose (Sigma, C9481) dissolved in distilled water. Fulvestrant (kindly provided by Astrazeneca, 200 mg/kg/week) was administered by subcutaneous injection (0.1 ml/dose) on a weekly basis for fourteen days. The HBC×22 and HBC×34 tamoxifen-resistant PDXs have been established by our collaborators in the Curie Institute (Cottu el al, 2014) and were treated for fourteen days in the presence or absence of the gamma-secretase inhibitor RO4929097 (10 mg/kg/day, oral gavage). Xenografts were collected in ice cold DMEM media for live cell assays, histological analysis and RNA and protein extraction. Patient-derived xenograft single cell suspension was obtained using a collagenase-hyaluronidase mixture for digestion (Stem Cell Technologies).
(§2) To determine tumor initiation capacity of MCF-7 cells or metastatic (BB3RC31) PDX cells treated in vitro or in vivo, respectively, Nude or NSG mice were injected subcutaneously with cells in mammosphere media mixed 1:1 with Matrigel. 8 μg/ml of 17-beta estradiol was administered in drinking water or 90-day slow release estrogen pellets were implanted sub-cutaneously into mice two days before cell injection (0.72 mg, Innovative Research of America). Serial limiting dilution implantation of MCF-7 cells (10.000, 1.000, 100, 10 cells) and the Extreme Limiting Dilution Analysis (ELDA) software (The Walter and Eliza Hall Institute of Medical Research) were used to perform calculations (95% CI) of tumor initiation. Positive tumor growth was assessed at day 60 or 90 after cell injection by determining the mice bearing a tumor greater than 100 mm^3 and is represented as mice positive for growth/mice tested (n=4 per condition in all experiments). p values were calculated with Chi-squared test.

[2] = tested on: Early (HBC×34) and metastatic (BB3RC31) PDX tumors; assay: BCSC activity (MFE, ALDEFLUOR) of ER+ PDX tumors treated in vivo; design: species or system mice; settings: 14 days; for BCSC activity measured by MFE and ALDH enzymatic activity: tamoxifen 10 mg/kg/day oral, fulvestrant 200 mg/kg/week s.c.
Experimental: Early (HBC×34) and metastatic (BB3RC31) BC estrogen-dependent PDXs were administered with 8 ug/ml of 17-beta estradiol in drinking water at all times and were treated with drugs when tumors reached 200-300 mm^3. Experiments were performed using PDX tumors between passages 5 and 8. Animal weight and tumor size was measured bi-dimensionally using callipers twice a week. The HBC×34 model was kindly provided by Dr Elisabetta Marangoni from Institute Curie, Paris (Cottu et al., 2012).
as §1, with “Xenografts were collected in ice cold DMEM media for live cell assays, histological analysis and RNA and protein extraction. Patient-derived xenograft single cell suspension was obtained using a collagenase-hyaluronidase mixture for digestion (Stem Cell Technologies).” left out
Single cell suspensions of freshly isolated ER+ primary and metastatic patient-derived samples were cultured for 7-9 days (primary cells) in mammosphere colony assays in the presence of ethanol, 10^−6 M 4-hydroxy-tamoxifen or 10^−7 M fulvestrant. […] Mammosphere formation efficiency (MFE) was calculated by dividing the number of mammospheres formed (≧50 μm) by the original number of single cells seeded (500 cells/cm^2 for primary cells and 200 cells/cm^2 for cell lines) and is expressed as fold change normalised to control or as the mean percentage of MFE (Shaw et al., 2012).
Dissociated single cells were suspended in Aldefluor assay buffer containing an ALDH substrate, bodipyaminoacetaldehyde (BAAA) at […], and incubated for 45 min at 37° C. […] Data were acquired on a LSR II (BD) flow cytometer and analysed using the BD FACSDiva™ software.

MCF-7 cells = assay: In vivo tumor initiation of pre-treated MCF-7 cells (limiting dilution, ELDA); design: species or system mice; settings: for in vivo tumor initiation capacity: 6 days in vitro pre-treatment, 100,000 MCF-7 cells, Nude mice, day 90; for enrichment in tumor-initiating cell frequency (ELDA): MCF-7 pre-treated six days, limiting dilution in NSG mice, day 60
Experimental: as §2, with “Serial limiting dilution implantation of MCF-7 cells (10.000, 1.000, 100, 10 cells) and the Extreme Limiting Dilution Analysis (ELDA) software (The Walter and Eliza Hall Institute of Medical Research) were used to perform calculations (95% CI) of tumor initiation.” left out

[3] = tested on: MCF-7, T47D and ZR-75-1 cells; assay: BCSC activity (MFE, ALDH-positive cells) of pre-treated ER+ cell lines; type: cell-based, human; settings: for ALDH-positive cells / mammosphere-forming activity: 6 days in vitro pre-treatment, 10^−6 M tamoxifen, 10^−7 M fulvestrant
Experimental: Single cell suspensions of freshly isolated ER+ primary and metastatic patient-derived samples were cultured for 7-9 days (primary cells) in mammosphere colony assays in the presence of ethanol, 10^−6 M 4-hydroxy-tamoxifen or 10^−7 M fulvestrant. Primary mammospheres were dissociated and replated in secondary mammosphere suspension culture for a further 7-9 days to measure self-renewal. Patient-derived xenograft cells were cultured for 7-10 days. For cell lines, cells were pre-treated in adherence and then cultured for 5 days in mammosphere culture. Mammosphere formation efficiency (MFE) was calculated by dividing the number of mammospheres formed (≧50 μm) by the original number of single cells seeded (500 cells/cm^2 for primary cells and 200 cells/cm^2 for cell lines) and is expressed as fold change normalised to control or as the mean percentage of MFE (Shaw et al., 2012).
Dissociated single cells were suspended in Aldefluor assay buffer containing an ALDH substrate, bodipyaminoacetaldehyde (BAAA) at […], and incubated for 45 min at 37° C. To distinguish between ALDH-positive and -negative cells, a fraction of cells was incubated under identical conditions in the presence of a 2-fold molar excess of the ALDH inhibitor, diethylaminobenzaldehyde (DEAB). Mouse cells were excluded from the FACS analysis with anti-mouse MHC Class I (H-2Kd) antibody conjugated with Pacific Blue (BioLegend, 116616). 7-aminoactinomycin D (7AAD, BD) was added for dead cell exclusion. Data were acquired on a LSR II (BD) flow cytometer and analysed using the BD FACSDiva™ software.
MCF7, T47D and ZR-75-1 cell lines were purchased from American Tissue Culture Collection (ATCC) and cultured in DMEM/F-12, GlutaMAX (Gibco) with 10% FBS (Gibco). Cells were treated for 3 days or 6 days with ethanol (control), 10^-6M 4-OH-tamoxifen or 10^−7M fulvestrant and/or with 10 μM of gamma-secretase inhibitor RO4929097 (Cellagen Technology) or DMSO (control).

SMILES	tumor-initiating capacity in secondary mouse hosts [1]	BCSC activity measured by MFE and ALDH enzymatic activity [2]	in vivo tumor initiation capacity (MCF-7 cells)	enrichment in tumor-initiating cell frequency (ELDA) (MCF-7 cells)	ALDH-positive cells [3]	mammosphere-forming activity [3]	stimulation of tumorigenicity following in vivo tamoxifen and fulvestrant treatment ([1]; combination with RO4929097)	endocrine stimulated BCSC activity (MFE and Aldefluor activity) ([2]; RO4929097 3 mg/kg/day oral with tamoxifen or fulvestrant)	enrichment in tumor-initiating cell frequency following tamoxifen or fulvestrant pre-treatment (MCF-7 cells; co-treatment with RO4929097 10 μM)	BCSC activity as assayed by MFE and ALDH-positive cells ([3]; 3 days tamoxifen or fulvestrant concomitantly with RO4929097 10 μM)
C[C@]12CC[C@@H]3c4ccc(O)cc4C[C@@H](CCCCCCCCC[S+]([O-])CCCC(F)(F)C(F)(F)F)[C@H]3[C@@H]1CC[C@@H]2O (some centres unmarked) [fulvestrant]	stimulation of tumorigenicity	paradoxical increase; also recorded: increasing	enriched	11 fold	enriched	enriched	–	–	–	–
CC(C)(C(=O)NCC(F)(F)C(F)(F)F)C(=O)N[C@@H]1C(=O)Nc2ccccc2-c2ccccc21 [RO4929097]	significantly reduced	–	–	–	–	–	completely reversed	significantly inhibited	reversed	reduced
CC/C(=C(\c1ccccc1)c1ccc(OCCN(C)C)cc1)c1ccccc1 [tamoxifen, (Z)-2-[4-(1,2-diphenylbut-1-enyl)phenoxy]-N,N-dimethylethanamine]	stimulation of tumorigenicity	paradoxical increase; also recorded: increasing	enriched	11 fold	enriched	enriched	–	–	–	–

Source: patent US20160376659A1, “Breast Cancer Biomarker” (The University of Manchester, priority 2015, published 2016)
